Reference: PMC5679667 (PLoS ONE, 2017)

Biological target: T1, ecAT3.10 (extracellular ATeam3.10) (Bacillus sp. PS3, UniProt P07678)
T1 construct: gene atpC; ATeam3.10 (epsilon subunit between CFP and YFP) with N-terminal IgK leader and C-terminal PDGFR transmembrane anchor; on surface of Neuro2A cells
Experiment: live-cell FRET/CFP ratio imaging
Type: cell-based
Details: Neuro2A cells, continuous perfusion, pH 7.3, room temperature; printed error probably a misprint

T1 sequence (P07678 whole entry): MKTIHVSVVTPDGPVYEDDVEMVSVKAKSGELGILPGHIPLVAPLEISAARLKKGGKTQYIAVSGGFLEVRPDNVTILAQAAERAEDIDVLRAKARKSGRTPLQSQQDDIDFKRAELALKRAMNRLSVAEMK

Nc1ncnc2c1ncn2[C@@H]1O[C@H](COP(=O)(O)OP(=O)(O)O)[C@@H](O)[C@H]1O [ADP]
fold increase in ratio signal at 100 μM: 1.026 ± 1.005
